# “And” between values parts separate entries of the source, which are not always exact repeats. Equal values may be shown once.
# Assays:
# Type in all cases: physicochemical
# [1] = Long-term freezer stability in dog plasma; conditions: approximately −70° C.
# Protocol: (§1) For the remaining validation tests, a calibration curve and triplicates QCs at the low, mid and high levels were analyzed with each sample set. The following samples were also analyzed either in conjunction with one of the precision and accuracy runs or in one of the additional validation runs: Samples from six lots of control dog plasma for specificity. Two concentration levels of unextracted QC-samples in triplicate (solvent standards) were analyzed for the evaluation of the recovery of sodium 2,2-dimethylbutyrate and DMV in dog plasma. Two levels of QC samples (Low QC and High QC in triplicate) were subjected to three freeze/thaw cycles at approximately −70° C. prior to extraction to evaluate freeze/thaw stability. Two levels of QC samples (Low QC and High QC in triplicate) were placed on the bench top for approximately 17 hours prior to extraction for the evaluation of the bench top stability. Triplicate low QC samples and triplicate high QC samples were stored for one month and three months in a freezer at approximately −70° C., and then extracted and analyzed to evaluate long term stability in dog plasma. Three aliquots of a dilution QC sample diluted 10-fold. QC-Low and QC-High plasma samples, which had been stored in a freezer at approximately −70° C. for one month and three months (99 days), were extracted in triplicate and analyzed. All CV % values and RE % values are within the acceptance criteria (≦15% and ±15% respectively). Therefore, sodium 2,2-dimethylbutyrate can be considered stable in dog plasma at approximately −70° C. for at least 99 days.
# [2] = Freeze/thaw cycle stability in human plasma; conditions: three freeze/thaw cycles at approximately −70° C.
# Protocol: The following samples were also analyzed either in conjunction with one of the precision and accuracy runs or in one of the additional validation runs. Samples from six lots of control human plasma for specificity. Samples from six lots of control human plasma fortified with internal standard for specificity. Two concentration levels of unextracted QC-samples in triplicate (solvent standards) were analyzed for the evaluation of the recovery of sodium 2,2-dimethylbutyrate and DMV in human plasma. Two levels of QC samples (Low QC and High QC in triplicate) were subjected to three freeze/thaw cycles at approximately −70° C. prior to extraction to evaluate freeze/thaw stability. Two levels of QC samples (Low QC and High QC in triplicate) were placed on the bench top for approximately 17 hours prior to extraction for the evaluation of the bench top stability. Triplicate low QC samples and triplicate high QC samples were stored for one month and three months in a freezer at approximately −70° C., and then extracted and analyzed to evaluate long term stability in human plasma. Two levels of extracted QC samples (Low QC and High QC) were re-analyzed after approximately 71 hours in the autosampler at room temperature to evaluate the extract autosampler stability. Two levels of extracted QC samples (Low QC and High QC) were re-analyzed after approximately 8 hours in the freezer at approximately −20° C. to evaluate the extract freeze stability. Three aliquots of a dilution QC sample diluted 10-fold. Triplicate dilutions of the old stock solution (stored at approximately 4° C.) and new stock solutions prepared at intervals of two weeks and one month. Statistical calculations in the report tables were calculated from unrounded concentration values taken directly from the raw data. The concentration values were rounded for display purposes.
# The stability of sodium 2,2-dimethylbutyrate in human plasma was evaluated at approximately −70° C. for three cycles using QC-Low and QC-High samples in triplicate. The freeze time was at least 12 to 24 hours, with a minimum thaw time of one hour. The CV % values for the QC-Low and QC-High stability samples are 3.3% and 9.8%, respectively. To calculate the RE %, the measured mean concentration was compared to the nominal concentration. The RE % values for the QC-Low and QC-High stability samples are 2.3% and −5.5%, respectively.
# [3] = Freeze/thaw cycle stability in rat plasma; conditions: three freeze/thaw cycles at approximately −70° C.
# Protocol: as §1, with “rat” for “dog”, “specificity; Samples from six lots of control rat plasma fortified with internal standard for specificity;” for “specificity.”, “rat plasma;” for “dog plasma.”, “stability;” for “stability.”, “10-fold.” for “10-fold. QC-Low and QC-High plasma samples, which had been stored in a freezer at approximately −70° C. for one month and three months (99 days), were extracted in triplicate and analyzed. All CV % values and RE % values are within the acceptance criteria (≦15% and ±15% respectively). Therefore, sodium 2,2-dimethylbutyrate can be considered stable in dog plasma at approximately −70° C. for at least 99 days.”
# The stability of sodium 2,2-dimethylbutyrate in rat plasma was evaluated at approximately −70° C. for three cycles using QC-Low and QC-High samples in triplicate. The freeze time was at least 12-24 hours, with a minimum thaw time of one hour. The CV % values for the QC-Low and QC-High stability samples are 13.3% and 4.6%, respectively. To calculate the RE %, the measured mean concentration was compared to the nominal concentration.
# [4] = Bench top stability in rat plasma; conditions: for Bench top stability, RE % (mean vs nominal): room temperature approximately 12.5 hours
# Protocol: as §1, with “rat” for “dog”, “specificity; Samples from six lots of control rat plasma fortified with internal standard for specificity;” for “specificity.”, “rat plasma;” for “dog plasma.”, “stability;” for “stability.”, “10-fold.” for “10-fold. QC-Low and QC-High plasma samples, which had been stored in a freezer at approximately −70° C. for one month and three months (99 days), were extracted in triplicate and analyzed. All CV % values and RE % values are within the acceptance criteria (≦15% and ±15% respectively). Therefore, sodium 2,2-dimethylbutyrate can be considered stable in dog plasma at approximately −70° C. for at least 99 days.”
# Bench top stability was evaluated at room temperature for approximately 12.5 hours. Triplicate QC-Low and QC-High samples were extracted and analyzed after these storage conditions. The CV % values for the QC-Low and QC-High stability samples are 6.3% and 11.7%, respectively. To calculate the RE %, the measured mean concentration was compared to the nominal concentration. The RE % values for the QC-Low and QC-High stability samples are 7.6% and 9.1%, respectively.
# [5] = 1 Month Interval, QC-High, nominal 40.0 μg/mL
# [6] = 1 Month Interval, QC-Low, nominal 0.60 μg/mL
# [7] = 3 Month Interval (99 days), QC-High, nominal 40.0 μg/mL
# [8] = 3 Month Interval (99 days), QC-Low, nominal 0.60 μg/mL
compound,measurement,setting,value
"CCC(C)(C)C(=O)[O-].[Na+] [Sodium 2,2-Dimethylbutyrate]",Time stable in freezer,[1],at least 99 days
same,"Long-term freezer stability, Mean concentration",[1]; [5],36.1 µg/mL
same,"Long-term freezer stability, RE % (mean vs nominal)",[1]; [5],−9.9%
same,"Long-term freezer stability, concentration found (replicate)",[1]; [5],36.4 µg/mL and 36.3 µg/mL and 35.5 µg/mL
same,"Long-term freezer stability, Mean concentration",[1]; [6],0.575 µg/mL
same,"Long-term freezer stability, RE % (mean vs nominal)",[1]; [6],−4.2%
same,"Long-term freezer stability, concentration found (replicate)",[1]; [6],0.586 µg/mL and 0.567 µg/mL and 0.572 µg/mL
same,"Long-term freezer stability, Mean concentration",[1]; [7],35.0 µg/mL
same,"Long-term freezer stability, RE % (mean vs nominal)",[1]; [7],−12.5%
same,"Long-term freezer stability, concentration found (replicate)",[1]; [7],36.1 µg/mL and 37.1 µg/mL and 31.7 µg/mL
same,"Long-term freezer stability, Mean concentration",[1]; [8],0.61 µg/mL
same,"Long-term freezer stability, RE % (mean vs nominal)",[1]; [8],1.0%
same,"Long-term freezer stability, concentration found (replicate)",[1]; [8],0.629 µg/mL and 0.621 µg/mL and 0.568 µg/mL
same,Stability after freeze/thaw cycles,[2],stable
same,"Freeze/thaw cycle stability, Mean concentration","[2]; QC-High, nominal 40.0 μg/mL",37.8 µg/mL
same,"Freeze/thaw cycle stability, RE % (mean vs nominal)","[2]; QC-High, nominal 40.0 μg/mL",−5.5%
same,"Freeze/thaw cycle stability, concentration found (replicate)","[2]; QC-High, nominal 40.0 μg/mL",41.9 µg/mL and 36.8 µg/mL and 34.7 µg/mL
same,"Freeze/thaw cycle stability, Mean concentration","[2]; QC-Low, nominal 0.60 μg/mL",0.614 µg/mL
same,"Freeze/thaw cycle stability, RE % (mean vs nominal)","[2]; QC-Low, nominal 0.60 μg/mL",2.3%
same,"Freeze/thaw cycle stability, concentration found (replicate)","[2]; QC-Low, nominal 0.60 μg/mL",0.615 µg/mL and 0.593 µg/mL and 0.633 µg/mL
same,Stability after freeze/thaw cycles,[3],stable
same,"Freeze/thaw cycle stability, Mean concentration","[3]; QC-High, nominal 40.0 μg/mL",41.2 µg/mL
same,"Freeze/thaw cycle stability, RE % (mean vs nominal)","[3]; QC-High, nominal 40.0 μg/mL",3.1%
same,"Freeze/thaw cycle stability, concentration found (replicate)","[3]; QC-High, nominal 40.0 μg/mL",41.7 µg/mL and 39.2 µg/mL and 42.9 µg/mL
same,"Freeze/thaw cycle stability, Mean concentration","[3]; QC-Low, nominal 0.60 μg/mL",0.575 µg/mL
same,"Freeze/thaw cycle stability, RE % (mean vs nominal)","[3]; QC-Low, nominal 0.60 μg/mL",−4.1%
same,"Freeze/thaw cycle stability, concentration found (replicate)","[3]; QC-Low, nominal 0.60 μg/mL",0.491 µg/mL and 0.595 µg/mL and 0.640 µg/mL
same,Time stable on bench top,[4]; ambient bench top storage,approximately 12.5 hours
same,"Measured concentration, QC-Low","[4]; bench top room temperature, nominal 0.60 μg/mL, individual replicates",0.600 µg/mL and 0.677 µg/mL and 0.660 µg/mL
same,"Measured concentration, QC-High","[4]; bench top room temperature, nominal 40.0 μg/mL, individual replicates",45.6 µg/mL and 37.9 µg/mL and 47.4 µg/mL
same,"Mean concentration, QC-Low","[4]; bench top, nominal 0.60 μg/mL",646 ng/mL
same,"RE %, QC-Low","[4]; bench top, nominal 0.60 μg/mL",7.6%
same,"Mean concentration, QC-High","[4]; bench top, nominal 40.0 μg/mL",43600 ng/mL
same,"RE %, QC-High","[4]; bench top, nominal 40.0 μg/mL",9.1%
same,"Bench top stability, RE % (mean vs nominal)",[4]; QC-High,9.1%
same,"Bench top stability, RE % (mean vs nominal)",[4]; QC-Low,7.6%

# Reference: patent US20110033946A1, “DETECTION OF SHORT-CHAIN FATTY ACIDS IN BIOLOGICAL SAMPLES” (HEMAQUEST PHARMACEUTICALS, INC., priority 2009, published 2011)
